Experimental data reported in US20080274976A1 (priority 2002, published 2008).
Where a SMILES comes first, the peptide text is derived from it. Bridges are numbered along the chain shown (N, C = ends). [ ]: non-standard residue; d: D form. Hyp = O=C(O)[C@@H]1C[C@@H](O)CN1

How the values were obtained:
[1] = tested on: TSha1 K^+ channel; type: cell-based, trout
[2] = biological target: Shaker-Δ6-46 (Drosophila melanogaster, UniProt P08510, DEL6-46); type: cell-based
Shaker-Δ6-46, sequence (P08510 1-655 with tags or gaps DEL6-46): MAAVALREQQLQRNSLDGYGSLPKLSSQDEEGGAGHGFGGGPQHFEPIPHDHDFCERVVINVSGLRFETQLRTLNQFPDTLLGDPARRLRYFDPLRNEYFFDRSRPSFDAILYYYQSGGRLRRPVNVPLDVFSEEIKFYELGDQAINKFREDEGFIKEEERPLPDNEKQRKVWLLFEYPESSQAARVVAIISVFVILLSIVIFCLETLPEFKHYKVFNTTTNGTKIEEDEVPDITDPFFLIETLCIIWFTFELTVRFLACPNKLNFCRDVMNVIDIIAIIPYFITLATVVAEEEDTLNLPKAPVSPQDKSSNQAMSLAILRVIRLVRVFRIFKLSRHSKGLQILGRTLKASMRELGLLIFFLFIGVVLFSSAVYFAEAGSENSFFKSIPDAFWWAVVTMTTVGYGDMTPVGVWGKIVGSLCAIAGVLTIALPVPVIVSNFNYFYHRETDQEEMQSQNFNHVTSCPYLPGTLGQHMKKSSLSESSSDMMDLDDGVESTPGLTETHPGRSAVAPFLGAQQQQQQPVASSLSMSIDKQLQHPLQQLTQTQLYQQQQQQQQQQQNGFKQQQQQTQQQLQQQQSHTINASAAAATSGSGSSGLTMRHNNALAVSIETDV

CC(C)C[C@@H]1NC(=O)[C@H](CO)NC(=O)[C@@H]2CSSC[C@@H]3NC(=O)[C@@H]4C[C@@H](O)CN4C(=O)[C@H](CC(N)=O)NC(=O)[C@H](CCCNC(=N)N)NC(=O)[C@H](CCCCN)NC(=O)[C@H](CSSC[C@H](NC(=O)[C@H](CO)NC(=O)[C@@H]4C[C@@H](O)CN4C(=O)[C@@H](N)CC(C)C)C(=O)N2)NC(=O)[C@H](C)NC(=O)[C@@H]2C[C@@H](O)CN2C(=O)[C@H](C(C)C)NC(=O)[C@@H]2C[C@@H](O)CN2C(=O)[C@H](CSSC[C@@H](C(=O)N[C@H](C(N)=O)[C@@H](C)O)NC3=O)NC(=O)[C@H](CC(C)C)NC(=O)[C@H](CCCNC(=N)N)NC(=O)[C@H](CC(C)C)NC(=O)[C@H](CC(N)=O)NC1=O [κM-conotoxin RIIIK, LOSCCSLNLRLCOVOACKRNOCCT-NH2] (H-L[Hyp]SCCSLNLRLC[Hyp]V[Hyp]ACKRN[Hyp]CCT-NH2; disulfide 4-17, 5-22, 12-23)
k^(C)on, times higher than in the Shaker-Δ6-46 channel [1]: about four | k^(O)off for Tsha1, times smaller than in the Shaker-Δ6-46 channel [1]: about 20 times | k^(O)on in Tsha1, times higher than in the Shaker-Δ6-46 channel [1]: three | affinity for the open state (0 mV), times lower compared to the closed state [2]: about three to four | k^(C)off [2]: 6.0 ± 3.0 s⁻¹ | k^(C)on [2]: 4e+06 ± 700000 M⁻¹ s⁻¹ | k^(O)off [2]: 90 ± 30 s⁻¹ | k^(O)on [2]: 3e+07 ± 7e+06 M⁻¹ s⁻¹
